Data reported in patent US20020137929A1, “1 - (3-heterocyclylphenyl) isothiourea, -isourea, -guanidine and -amidine herbicidal agents” (Intellectual Property Department, BASF Aktiengesellschaft, priority 1998, published 2002).

Legend:
[1] = test system: SAGPY (Arrowhead (Pygmaea)); assay: Postemergence weed control under flooded paddy conditions; assay type: in vivo, Sagittaria pygmaea; conditions: postemergence weeds, 3-4 weeks after treatment
How it was run: (§1)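 Injury ratings (0–9 scale covering stand, vigor, malformation, size, chlorosis and overall appearance versus control) were made three to four weeks after treatment. Test material, about 0.0313 to 0.500 kg/ha a.i. in 50/50 v/v aqueous/acetone, was added to flood water 1.5 to 3 cm deep over 3 to 5 cm weeds and 1.5 to 2.5 leaf rice.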

[2] = test system: SAGPY (Arrowhead (Pygmaea)); assay: Preemergence weed control under flooded paddy conditions; assay type: in vivo, Sagittaria pygmaea; conditions: rated 3-4 weeks after treatment
How it was run: (§2)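 Flooded-pot preemergence screen with silt loam and seeds in the upper 0.5 cm. Dose about 0.0313 to 0.500 kg/ha, delivered into flood water; visual 0-9 score after 3 to 4 weeks.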

[3] = test system: SETVI (Foxtail, Green); assay: Preemergence herbicidal evaluation; assay type: in vivo, Setaria viridis; conditions: rated 4-5 weeks after treatment
How it was run: (§3)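 Steps: mix seeds into potting soil; plant atop ~1 inch soil; spray compound in aqueous acetone (~0.0156-0.500 kg/ha equivalent); maintain in greenhouse with watering; rate visually 0-9 versus control at 4-5 weeks.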

[4] = test system: TRZAWR (Wheat, Winter, cv Riband); assay: Postemergence herbicidal evaluation; assay type: in vivo, Triticum aestivum; conditions: postemergence
How it was run: (§4)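 ~2-wk seedlings; postemergence spray, 40 psi; vehicle 1:1 acetone:water + 0.5% Tween 20; rate ≈0.0156–0.500 kg/ha; greenhouse hold; scored 4–5 wk after treatment, 0–9 scale vs control; repeat tests averaged.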

[5] = test system: CYPSE (Flatsedge); assay: Preemergence weed control under flooded paddy conditions; assay type: in vivo, Cyperus serotinus; conditions: rated 3-4 weeks after treatment
How it was run: as §2

[6] = test system: MOOVA (Monochoria); assay: as above; assay type: in vivo, Monochoria vaginalis; conditions: rated 3-4 weeks after treatment
How it was run: as §2

[7] = test system: GALAP (Galium); assay: Preemergence herbicidal evaluation; assay type: in vivo, Galium aparine; conditions: rated 4-5 weeks after treatment
How it was run: as §3

[8] = test system: GLXMAW (Soybean, Williams); assay: Postemergence herbicidal evaluation; assay type: in vivo, Glycine max, (L.) Merr. cv Williams; conditions: postemergence
How it was run: as §4

[9] = test system: ECHORC (Watergrass (Calif.)); assay: Preemergence weed control under flooded paddy conditions; assay type: in vivo, Echinochloa oryzoides; conditions: rated 3-4 weeks after treatment
How it was run: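 Ratings on a 0-9 visual scale cover stand, vigor, malformation, size, chlorosis and overall appearance relative to a control, taken three to four weeks post-treatment. Application was into flood water over freshly sown silt loam at roughly 0.0313 to 0.500 kg/ha.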

[10] = test system: CASOB (Sicklepod); assay: Postemergence herbicidal evaluation; assay type: in vivo, Cassia obtusifolia; conditions: postemergence
How it was run: as §4

[11] = test system: AMBEL (Ragweed, Common); assay: Postemergence herbicidal evaluation; assay type: in vivo, Ambrosia artemisifolia; conditions: postemergence
How it was run: as §4

[12] = test system: ECHORC (Watergrass (Calif.)); assay: Postemergence weed control under flooded paddy conditions; assay type: in vivo, Echinochloa oryzoides; conditions: postemergence weeds, 3-4 weeks after treatment
How it was run: as §1

[13] = test system: GALAP (Galium); assay: Postemergence herbicidal evaluation; assay type: in vivo, Galium aparine; conditions: postemergence
How it was run: as §4

[14] = test system: ORYSAT (Rice, Tebonnet); assay: Preemergence herbicidal evaluation; assay type: in vivo, Oryza sativa, (L.) Tebonnet; conditions: rated 4-5 weeks after treatment
How it was run: as §3

Q: Which results are given for `CN1C(=O)CSC1=Nc1cc(N2C(=O)C3=C(CCCC3)C2=O)c(F)cc1Cl` [Compound 1, N-{4-chloro-2-fluoro-5-[(3-methyl-4-oxo-2-thiazolidinylidene)amino]phenyl}-1-cyclohexene-1,2-dicarboximide]?
A: Herbicidal rating SAGPY ([1]; rate 0.0313 kg/ha): 0.0; Herbicidal rating SAGPY ([1]; rate 0.0625 kg/ha): 0.0; Herbicidal rating SAGPY ([1]; rate 0.1250 kg/ha): 0.0; Herbicidal rating SAGPY ([1]; rate 0.2500 kg/ha): 0.0; Herbicidal rating SAGPY ([1]; rate 0.5000 kg/ha): 0.0; Herbicidal rating SAGPY ([2]; 0.0313 kg/ha): 0.0; Herbicidal rating SAGPY ([2]; 0.0625 kg/ha): 0.0; Herbicidal rating SAGPY ([2]; 0.1250 kg/ha): 0.0; Herbicidal rating SAGPY ([2]; 0.2500 kg/ha): 0.0; Herbicidal rating SAGPY ([2]; 0.5000 kg/ha): 0.0; SETVI preemergence herbicidal rating ([3]; rate 0.0313 kg/ha): 5.0; SETVI preemergence herbicidal rating ([3]; rate 0.0625 kg/ha): 9.0; SETVI preemergence herbicidal rating ([3]; rate 0.1250 kg/ha): 8.0; SETVI preemergence herbicidal rating ([3]; rate 0.2500 kg/ha): 9.0; SETVI preemergence herbicidal rating ([3]; rate 0.5000 kg/ha): 8.0; TRZAWR herbicidal rating ([4]; rate 0.0157 kg/ha): 2.5; TRZAWR herbicidal rating ([4]; rate 0.0313 kg/ha): 3.5; TRZAWR herbicidal rating ([4]; rate 0.0625 kg/ha): 4.0; TRZAWR herbicidal rating ([4]; rate 0.1250 kg/ha): 5.0; TRZAWR herbicidal rating ([4]; rate 0.2500 kg/ha): 5.5; TRZAWR herbicidal rating ([4]; rate 0.5000 kg/ha): 6.0; Herbicidal rating CYPSE ([5]; 0.0313 kg/ha): 0.0; Herbicidal rating CYPSE ([5]; 0.0625 kg/ha): 0.0; Herbicidal rating CYPSE ([5]; 0.1250 kg/ha): 0.0; Herbicidal rating CYPSE ([5]; 0.2500 kg/ha): 2.0; Herbicidal rating CYPSE ([5]; 0.5000 kg/ha): 8.0; Herbicidal rating MOOVA ([6]; 0.0313 kg/ha): 8.0; Herbicidal rating MOOVA ([6]; 0.0625 kg/ha): 9.0; Herbicidal rating MOOVA ([6]; 0.1250 kg/ha): 9.0; Herbicidal rating MOOVA ([6]; 0.2500 kg/ha): 9.0; Herbicidal rating MOOVA ([6]; 0.5000 kg/ha): 9.0; GALAP preemergence herbicidal rating ([7]; rate 0.0313 kg/ha): 9.0; GALAP preemergence herbicidal rating ([7]; rate 0.0625 kg/ha): 7.0; GALAP preemergence herbicidal rating ([7]; rate 0.1250 kg/ha): 9.0; GALAP preemergence herbicidal rating ([7]; rate 0.2500 kg/ha): 9.0; GALAP preemergence herbicidal rating ([7]; rate 0.5000 kg/ha): 8.0; GLXMAW herbicidal rating ([8]; rate 0.0157 kg/ha): 4.0; GLXMAW herbicidal rating ([8]; rate 0.0313 kg/ha): 4.5; GLXMAW herbicidal rating ([8]; rate 0.0625 kg/ha): 4.5; GLXMAW herbicidal rating ([8]; rate 0.1250 kg/ha): 5.0; GLXMAW herbicidal rating ([8]; rate 0.2500 kg/ha): 5.5; GLXMAW herbicidal rating ([8]; rate 0.5000 kg/ha): 6.0; Herbicidal rating ECHORC ([9]; 0.0313 kg/ha): 2.0; Herbicidal rating ECHORC ([9]; 0.0625 kg/ha): 4.0; Herbicidal rating ECHORC ([9]; 0.1250 kg/ha): 6.0; Herbicidal rating ECHORC ([9]; 0.2500 kg/ha): 7.0; Herbicidal rating ECHORC ([9]; 0.5000 kg/ha): 9.0; CASOB herbicidal rating ([10]; rate 0.0157 kg/ha): 0.0; CASOB herbicidal rating ([10]; rate 0.0313 kg/ha): 2.0; CASOB herbicidal rating ([10]; rate 0.0625 kg/ha): 4.0; CASOB herbicidal rating ([10]; rate 0.1250 kg/ha): 4.0; CASOB herbicidal rating ([10]; rate 0.2500 kg/ha): 6.0; CASOB herbicidal rating ([10]; rate 0.5000 kg/ha): 7.0; AMBEL herbicidal rating ([11]; rate 0.0157 kg/ha): 2.0; AMBEL herbicidal rating ([11]; rate 0.0313 kg/ha): 3.0; AMBEL herbicidal rating ([11]; rate 0.0625 kg/ha): 3.0; AMBEL herbicidal rating ([11]; rate 0.1250 kg/ha): 5.0; AMBEL herbicidal rating ([11]; rate 0.2500 kg/ha): 7.0; AMBEL herbicidal rating ([11]; rate 0.5000 kg/ha): 8.0; Herbicidal rating ECHORC ([12]; rate 0.0313 kg/ha): 1.0; Herbicidal rating ECHORC ([12]; rate 0.0625 kg/ha): 2.0; Herbicidal rating ECHORC ([12]; rate 0.1250 kg/ha): 3.0; Herbicidal rating ECHORC ([12]; rate 0.2500 kg/ha): 3.5; Herbicidal rating ECHORC ([12]; rate 0.5000 kg/ha): 5.5; GALAP herbicidal rating ([13]; rate 0.0157 kg/ha): 4.0; GALAP herbicidal rating ([13]; rate 0.0313 kg/ha): 6.0; GALAP herbicidal rating ([13]; rate 0.0625 kg/ha): 6.0; GALAP herbicidal rating ([13]; rate 0.1250 kg/ha): 8.0; GALAP herbicidal rating ([13]; rate 0.2500 kg/ha): 9.0; GALAP herbicidal rating ([13]; rate 0.5000 kg/ha): 9.0; ORYSAT preemergence herbicidal rating ([14]; rate 0.0313 kg/ha): 0.0; ORYSAT preemergence herbicidal rating ([14]; rate 0.0625 kg/ha): 0.0; ORYSAT preemergence herbicidal rating ([14]; rate 0.1250 kg/ha): 2.0; ORYSAT preemergence herbicidal rating ([14]; rate 0.2500 kg/ha): 3.0; ORYSAT preemergence herbicidal rating ([14]; rate 0.5000 kg/ha): 6.0
